Results from ChEMBL document CHEMBL1151071, “Inhibition of human leukocyte elastase. 5. Inhibition by 6-alkyl substituted penem benzyl esters” (Bioorg Med Chem Lett, 1993).

What was measured:
[1] = target: T1, Neutrophil elastase (Homo sapiens, UniProt P08246); assay: Compound was tested for its inhibitory effect against Human leukocyte elastase (HLE)
T1 sequence (P08246 whole entry): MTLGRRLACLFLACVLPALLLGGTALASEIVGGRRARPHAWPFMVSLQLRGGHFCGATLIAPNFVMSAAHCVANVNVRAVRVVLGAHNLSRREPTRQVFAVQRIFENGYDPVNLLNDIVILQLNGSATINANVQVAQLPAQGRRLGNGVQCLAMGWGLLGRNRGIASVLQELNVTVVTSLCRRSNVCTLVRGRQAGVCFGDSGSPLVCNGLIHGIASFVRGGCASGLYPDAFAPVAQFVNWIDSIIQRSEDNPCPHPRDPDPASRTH

[2] = target: T1, Neutrophil elastase; assay: Inhibition of Human leukocyte elastase

SMILES: CC1=C(C(=O)OCc2ccccc2)N2C(=O)C[C@H]2S1 (racemic)
- Ki [1]: 310 µM
- IC50 [2]: > 20 µM
